In patent US8026208B2, “Peptide tyrosinase inhibitors and uses thereof” (The Board of Trustees of the Leland Stanford Junior …, priority 2007, dated 2011):
Each block holds one molecule with its values, some of them ahead of it. No end group written: not given here.

Legend:
Mushroom tyrosinase [1] = experiment: Tyrosinase inhibition at single concentration (melanin synthesis evaluation); assay type: biochemical; conditions: for considered effective in these assays: mushroom tyrosinase and B-16 assays, SF 8 mM, PLG 3 mM
Description: Peptides SF, VL, and PLG-OH were tested, along with controls of kojic acid, a known tyrosinase inhibitor, and licorice extracts, a known tyrosinase inhibitor (See J. Agric. Food Chem., 51 (5), 1201-1207, 2003). Tyrosinase inhibition was measured using mushroom tyrosinase (Sigma Aldrich cat # T3824) and L-tyrosine (Sigma Aldrich cat # T8566) in an assay buffer consisting of phosphate buffer (1.0M, pH 6.8) and 5%, and absolute water. The assay buffer, with test sample concentrations and tyrosinase, was incubated in the dark at room temperature for one hour and absorption was read.

[2] = system: B16-F10 mouse melanoma cells; experiment: B-16 pigmentation assay; assay type: cell-based; conditions: concentration tested 8 mM, 7 days
Description: (§1) The B-16 pigmentation assay used B16-F10 mouse melanoma cells (ATCC CRL-6475) grown in DMEM, DMEM without phenol red, FBS, antibiotics, L-glutamine and other standard components. Cells were counted in a Packard Spectracount (microplate spectrophotometer) filtered at 540 nm and 570 nm. The cells were cultured with growth medium and incubated for 24 hrs. at 37° C. and 10% CO2. Cells were treated with 200 μl of growth medium containing test active ingredient and incubated at 37° C. and 10% CO2. After 7 days, the cells were read at 540 nm using the Packard microplate reader. Cell viability was assessed using the MTT assay (Mosmann T. Rapid colorimetric assay for cellular growth and survival: application to proliferation and cytotoxicity assays. J Immunol Methods. 1983 Dec. 16; 65(1-2):55-63), which is used to determine the number of living cells in a sample.

[3] = Solubility in tyrosinase assay buffer; assay type: physicochemical; conditions: 8 mM
[4] = Stability testing of 1% peptide solutions by HPLC/MS; conditions: 1% solution, sealed tube, ambient, HPLC or MS, 4 months
Description: A sixth peptide, VLLK (SEQ ID NO: 3), was used as inner standard for quantitative evaluation of other peptide stability.
HPLC/MS: A 1% solution was prepared for each peptide and sealed in a tube, which was kept in ambient environment. High Performance Liquid Chromatography (HPLC) and Mass Spectroscopy (MS) were tested periodically at an approximate time range of 30 days. A fresh 1% VLLK (SEQ ID NO: 3) solution used as inner standard was prepared on the same day of each test. The amount of each peptide was determined by its peak area relative to that of VLLK (SEQ ID NO: 3).

Mushroom tyrosinase [5] = experiment: Mushroom tyrosinase inhibition, colorimetric detection of dopachrome (IC50, kinetics); assay type: biochemical; conditions: L-tyrosine substrate, pH 6.8, 37° C., absorbance 475 nm at 30 min
Description: Mushroom tyrosinase, L-tyrosine and other chemicals for the enzymatic reaction were obtained from Sigma-Aldrich. […] It is understood that research grade reagents were used for convenience, and it is preferred that the peptides be prepared to pharmaceutical grade purity, greater than 90%, preferably greater than 99% pure. Inhibition of tyrosinase by experimental peptides was determined by calorimetric detection of dopachrome, the reaction product of the substrate L-tyrosine. Mushroom tyrosinase, L-tyrosine, and a potassium phosphate buffer (pH 6.8) were added to 96-well plates containing short sequence peptides dissolved in 5% DMSO and incubated at 37° C. The absorbance at 475 nm was measured using a BIO-TEK plate reader 30 min after reaction initiation. Each experiment was performed in triplicate on 3 separate occasions. The protocol is described in further detail in Piao et al., “Mushroom Tyrosinase Inhibition Activity of Some Chromones,” Chem. Pharm. Bull. 56(3): 309-311 (2002), and in Pomerants, J. Biol. Chem 238:2351-2357 (1963). Enzyme kinetics were calculated using the Michaelis-Menton equation by observing changes in reaction velocity accompanying substrate concentrations of 0.5, 1, 2, and 4 mM L-tyrosine. Once initial reaction velocities were obtained, Lineweaver-Burke plots were created to calculate Km, Vmax, and to determine the mode of enzymatic inhibition.

[6] = system: facial pigmentation of patients with recalcitrant melasma; experiment: Clinical study in patients with recalcitrant melasma; assay type: in vivo, human; conditions: peptide in liposomes at 1%
Text: Patients with recalcitrant melasma (those that failed over the counter products, or HQ 4% for six months, or Tri-luma® Cream for six months) were randomized and blinded to two treatment groups (vehicle and peptide). Patients applied each product twice per day followed by a sunscreen with a sun protection factor of 30 Qam. Patients were then asked to rate the percentage improvement in their facial pigmentation using a nominal scale of 0-100, with 0 corresponding to no change and 100 corresponding to complete resolution. The results are shown in FIG. 3, in which the PLG-OH peptide is shown to be rated as 40-50% improvement, where vehicle caused no improvement. The peptide was formulated in liposomes at 1%, and the control was the liposomes alone.

[7] = system: B16-F10 mouse melanoma cells; experiment: Cell viability by MTT assay in B-16 pigmentation assay; assay type: cell-based
Description: as §1

[8] = biological target: T1, cellular tyrosinase activity of melanocytes (Homo sapiens, UniProt P14679); experiment: Assay of cellular tyrosinase activity with L-DOPA as substrate; assay type: cell-based; conditions: 7 d treatment
T1 construct: Primary human melanocytes were kindly obtained from Dr. Todd Ridky; endogenous in cells; host or cells: primary human melanocytes (passage 3)
T1 sequence (P14679 19-529): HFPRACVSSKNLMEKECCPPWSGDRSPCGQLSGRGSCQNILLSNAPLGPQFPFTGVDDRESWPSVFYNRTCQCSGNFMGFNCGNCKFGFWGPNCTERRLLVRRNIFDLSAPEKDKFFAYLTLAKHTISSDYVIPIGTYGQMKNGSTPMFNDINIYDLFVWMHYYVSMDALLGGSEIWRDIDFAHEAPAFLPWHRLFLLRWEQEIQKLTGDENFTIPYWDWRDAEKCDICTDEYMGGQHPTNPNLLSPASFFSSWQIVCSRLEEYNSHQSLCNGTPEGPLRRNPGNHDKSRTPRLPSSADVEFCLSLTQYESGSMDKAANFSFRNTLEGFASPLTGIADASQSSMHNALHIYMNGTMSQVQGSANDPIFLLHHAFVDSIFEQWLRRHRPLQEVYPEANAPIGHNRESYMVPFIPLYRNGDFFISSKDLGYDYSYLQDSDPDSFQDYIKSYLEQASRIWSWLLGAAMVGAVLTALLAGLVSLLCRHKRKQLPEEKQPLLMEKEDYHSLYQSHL
Description: (§2) Primary human melanocytes were kindly obtained from Dr. Todd Ridky in the department of dermatology, Stanford University. Cells were cultured in Medium 254 (Cascade Biologics) supplemented with Human Melanocyte Growth Supplement (HMGS, Cascade Biologics). They were grown in a humidified atmosphere with 5% CO2 at 37° C. Cell plating densities were arranged that those cells were in log phase of growth for the duration of incubation with test samples. Subcultures of cells were plated at a density of 4×10^4 cells/cm^2. Approximately 24 h later, fresh medium and test samples were added. Cells were harvested 7 d after test samples addition, replaced with fresh medium and test samples every two days.
Human melanocytes were cultured in 6-well plates. After treatment with individual test samples for 7 d, the cells were washed with phosphate-buffered saline (PBS) and lysed with phosphate buffer, pH 6.8, containing 1% Triton X-100. After sonication, lysates were clarified by centrifugation at 10000 g for 10 min. After determination of protein content with a Bio-Rad protein assay kit, lysates were added to 96 well culture plate containing equal amounts of protein (40 μg), and adjusted with lysis buffer to reach 150 μl in each well. 75 μl of 10 mM L-DOPA dissolved in lysis buffer was added to each well. The culture plate was incubated at 37° C. for 30 min, and then read with the spectrophotometer at 475 nm.
Tyrosinase inhibitory activity was calculated with the following formula: tyrosinase inhibition (%)=[1−(O.D.475 of sample/O.D.475 of control)]×100%.
We also examined the inhibitory action of RA peptide on cellular tyrosinase activity of melanocytes, using L-DOPA as substrate. After centrifugation and protein calculation, certain volume of supernatant for each sample was transferred to 96 well culture plate by compensating a certain protein content in each well, and adjusted the volume of each well to 150 μl with 0.067M of phosphate buffer (pH 6.8). 75 μl of 10 mM L-DOPA dissolved in phosphate buffer (pH 6.8) was added to each well. The culture plate was incubated at 37° C. for 30 min, and then read with the spectrophotometer at 475 nm.

[9] = system: Primary human melanocytes; assay type: cell-based; conditions: 24 h, 100 µM
Description: as §2
Cell viability was determined using WST-1 Cell Proliferation Kit (Roche). Cells were plated at 1×10^5/well (24-well plates). Twenty-four hours after plating, test samples were added and cultures were incubated for an additional 7 d. At the end of the treatment period, 50 μl WST-1 was added to each well. The plates were placed at 37° C. for 4 h in the dark and the absorbance at 450 nm was read using microplate. Usually, 3 replicate wells were measured for each group to be tested. Wells containing medium but no cells served as controls. Cell viability was calculated according to the equation: cell viability=absorbance (sample tested)/absorbance (medium only)×100%. Assay of Cellular Tyrosinase Activity […]

[10] = system: Primary human melanocytes; experiment: Melanocyte proliferation rate; assay type: cell-based; conditions: up to 10 μM
Description: as §2
To exclude the possibility that the inhibitory effects of RA peptide on melanogenesis might be caused by the inhibition of cell growth, we compared the number of cells grown in the presence and absence of test samples.

Human melanocytes = experiment: Melanin content measurement in melanocytes; assay type: cell-based; conditions: 10 μM (peptide: similar concentration), 7 days
Description: as §2
Human melanocytes were cultured in 6-well plates and treated with individual test samples for 7 d. After washes in PBS, cells were detached by short incubation in trypsin/EDTA (0.25%/0.1% in PBS). An aliquot was used for cell count. […] Melanin concentrations were calculated by comparison of the OD at 475 nm of unknown samples with a standard curve obtained with synthetic melanin.
To provide more direct evidence that RA peptide inhibits melanogenesis, its effects on melanin production in melanocytes was studied. The contents of melanin in melanocytes treated with no addition, RA peptide or HQ for 7 days were determined with a spectrophotometer and compared with a melanin standard curve. […]

tyrosinase = conditions: read-out: published IC50; cited from earlier work

Molecule: SFLLRN [SF peptide]
considered effective in these assays (Mushroom tyrosinase [1]): Neither SF peptide nor PLG was considered effective
% Depigmentation (B-16 Assay) [2]: 0%
solubility in buffer [3]: ND (insoluble
degradation [4]: did not show degradation

Molecule: RADSRADC [RA peptide, RADSRADC]
Viability ([7]; 150, 300 and 450 uM): not significantly affected
reduction of cellular tyrosinase activity ([8]; 1 μM): 1.2%
reduction of cellular tyrosinase activity ([8]; 10 μM): 15.6%
reduction of cellular tyrosinase activity ([8]; 100 μM): 21.1%

Molecule: Oc1ccc(O)cc1 [HQ, Hydroquinone]
cell death [9]: 100%
inhibitory effects on melanocyte proliferation rates [10]: did not show inhibitory effects
melanin content (Human melanocytes): slightly reduced
reduction of cellular tyrosinase activity ([8]; 10 μM): 28.8%
IC50 (tyrosinase): ~700 µM

Molecule: O=c1cc(CO)occ1O [Kojic Acid, 5-hydroxy-2-(hydroxymethyl)-4-pyrone, reference compound]
% Tyrosinase inhibition (Mushroom tyrosinase [1]; concentration tested 0.25%): 94%

The next lines start with results.

IC50 (Mushroom tyrosinase [5]): 2730 µM
% Tyrosinase inhibition (Mushroom tyrosinase [1]; concentration tested 3 mM): 6%
Molecule: PLG-OH [tripeptide PLG with native amino and carboxy termini, distinguished from PLG-NH2]
side effects (erythema, scaling, contact dermatitis reaction, comedone formation) ([6]; 4-month exposure): no side effects
percentage improvement in facial pigmentation ([6]; patient-rated scale 0-100, applied twice per day): 40-50%
considered effective in these assays (Mushroom tyrosinase [1]): Neither SF peptide nor PLG was considered effective
cytotoxicity (printed in the % Depigmentation column) ([7]; concentration tested 3 mM): cyto-toxic

IC50 (result in words) (Mushroom tyrosinase [5]): no effect
Molecule: VLLK [VL peptide, reference compound]
